Laboratory results published in patent US6908930B2, “4-substituted 7-AZA-indolin-2-ones and their use as protein kinase inhibitors” (Sugen, Inc., priority 1999, dated 2005).
Read-outs that look alike come from different tables or passages of the source.

Tests used:
PDGFR = target: T1, PDGFR (Homo sapiens, UniProt P09619); assay: Assay for modulation of PDGFR activity (ELISA); format: biochemical; conditions: read-out: bio PDGFR IC50
T1 construct: expressed in transfected cells; host or cells: NIH3T3
T1 sequence (P09619 33-1106, species assumed): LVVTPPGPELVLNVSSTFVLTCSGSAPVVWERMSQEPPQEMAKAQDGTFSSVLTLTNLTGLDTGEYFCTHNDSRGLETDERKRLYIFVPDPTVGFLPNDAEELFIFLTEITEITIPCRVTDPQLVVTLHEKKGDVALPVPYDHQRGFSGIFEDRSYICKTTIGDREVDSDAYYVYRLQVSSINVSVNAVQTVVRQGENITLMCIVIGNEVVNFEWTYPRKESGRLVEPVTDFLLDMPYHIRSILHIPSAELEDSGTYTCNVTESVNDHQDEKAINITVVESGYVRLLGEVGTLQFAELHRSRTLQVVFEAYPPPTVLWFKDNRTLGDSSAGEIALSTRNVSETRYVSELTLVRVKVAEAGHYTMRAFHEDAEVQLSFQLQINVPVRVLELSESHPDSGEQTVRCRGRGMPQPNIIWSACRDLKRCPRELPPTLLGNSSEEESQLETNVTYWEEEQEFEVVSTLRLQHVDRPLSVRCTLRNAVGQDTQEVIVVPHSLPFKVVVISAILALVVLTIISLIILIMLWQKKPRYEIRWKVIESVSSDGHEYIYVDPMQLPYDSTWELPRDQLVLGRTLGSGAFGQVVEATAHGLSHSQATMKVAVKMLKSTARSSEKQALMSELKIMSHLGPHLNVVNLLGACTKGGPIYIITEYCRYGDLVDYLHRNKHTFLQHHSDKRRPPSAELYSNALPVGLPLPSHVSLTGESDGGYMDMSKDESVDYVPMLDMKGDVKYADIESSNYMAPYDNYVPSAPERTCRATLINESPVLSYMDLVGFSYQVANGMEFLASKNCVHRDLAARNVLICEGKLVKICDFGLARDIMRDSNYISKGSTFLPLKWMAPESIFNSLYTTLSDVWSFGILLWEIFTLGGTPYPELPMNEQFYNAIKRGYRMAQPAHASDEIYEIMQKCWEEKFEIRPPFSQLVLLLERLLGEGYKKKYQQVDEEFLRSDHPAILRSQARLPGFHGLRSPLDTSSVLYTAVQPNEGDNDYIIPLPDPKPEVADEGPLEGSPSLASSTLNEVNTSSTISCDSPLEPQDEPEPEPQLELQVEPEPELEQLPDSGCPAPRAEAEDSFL
Method: Using the following reagents, supplies, and methods, the ability of the compounds of the invention to modulate the in vitro activity of the PDGFR can be readily determined in an enzyme-linked immunosorbent assay (ELISA).
Monoclonal anti-PDGFR antibody (28D4C10) is stored at −20° C. in 50 mL tubes prior to use.
Lysates from PDGFR-β expressing NIH3T3 cells are obtained and stored at −80° C. in 1 mL aliquots. PDGFR-β expression in eukaryotic cells is well known in the art. Lysates are prepared by the following method. Place carrier dishes in ice trays, and after cooling, remove the media and replace with ice cold PBS. Remove the PBS and repeat. […] Take up lysate with a pipettor and add to a 30 mL centrifuge tube on ice. Vortex the tubes for 30-60 seconds and then centrifuge for 10 minutes at 7000 rpm in a J-20 rotor which has been precooled to below 0° C. Recover the supernatants and combine them in a 250 mL tube and place on ice. Perform protein determination to measure the total quantity of protein per mL of solution. Aliquot the lysate into 1 mL fractions and store at −80° C.
Coat Corning 96 well ELISA plates with 0.5 μg per well 28D4C10 antibody in a volume of 100 μl PBS overnight, at 4° C. and remove unbound antibody, 28D4C10, from wells by inverting plate to remove liquid. Wash 1× with distilled H2O by filling wells. Pat the plate on a paper towel to remove excess liquid.
Add 150 μL of Blocking Buffer to each well. Incubate for 30 minutes at room temperature, with shaking and wash plate 3× with deionized water, then once with TBST. Pat plate on a paper towel to remove excess liquid and bubbles
Dilute lysate in PBS (10 mg lysate/100 μL PBS). Add 100 μL of diluted lysate to each well. Shake at room temperature for 60 min. Wash plate 3× with deionized water, then once with TBST. Pat plate on a paper towel to remove excess liquid and bubbles.
Add 80 μL Kinase Buffer to ELISA plate containing captured PDGFR.
Dilute drugs/extracts 1:10 (unless specified otherwise) in TBS+10% DMSO in 96-well polypropylene plates. (i.e., 10 μL compound+90 μL (TBS+10% DMSO)). Add 10 μL diluted drugs/extracts to ELISA plate. […] Incubate for 30 minutes while shaking at room temperature.
After 30 minutes stop reaction with addition of 10 μL of 200 mM EDTA pH 8.0 for 20 mM final in well. Wash 4× with deionized water, twice with TBST.
Incubate 30-45 minutes at room temperature, with shaking. Wash plate 3× with deionized water, then once with TBST. Pat plate on a paper towel to remove excess liquid and bubbles.
Incubate 30 minutes at room temperature with shaking. Wash plate 3× with deionized water, then once with TBST. Pat plate on a paper towel to remove excess liquid and bubbles.
Add 100 μL of ABTS/H2O2 solution to each well. Incubate 10 to 30 minutes while shaking. Remove any bubbles. If necessary stop reaction with the addition of 100 μL of 0.2M HCl per well
(§1) Read assay on Dynatech MR7000 ELISA reader.

EGFR = target: T2, EGFR (Homo sapiens, UniProt P00533); assay: Assay for modulation of EGFR activity (ELISA); format: biochemical
T2 construct: A431 […] cell lysate is stored at −80° C; host or cells: A431 cell lysate
T2 sequence (P00533 25-1210): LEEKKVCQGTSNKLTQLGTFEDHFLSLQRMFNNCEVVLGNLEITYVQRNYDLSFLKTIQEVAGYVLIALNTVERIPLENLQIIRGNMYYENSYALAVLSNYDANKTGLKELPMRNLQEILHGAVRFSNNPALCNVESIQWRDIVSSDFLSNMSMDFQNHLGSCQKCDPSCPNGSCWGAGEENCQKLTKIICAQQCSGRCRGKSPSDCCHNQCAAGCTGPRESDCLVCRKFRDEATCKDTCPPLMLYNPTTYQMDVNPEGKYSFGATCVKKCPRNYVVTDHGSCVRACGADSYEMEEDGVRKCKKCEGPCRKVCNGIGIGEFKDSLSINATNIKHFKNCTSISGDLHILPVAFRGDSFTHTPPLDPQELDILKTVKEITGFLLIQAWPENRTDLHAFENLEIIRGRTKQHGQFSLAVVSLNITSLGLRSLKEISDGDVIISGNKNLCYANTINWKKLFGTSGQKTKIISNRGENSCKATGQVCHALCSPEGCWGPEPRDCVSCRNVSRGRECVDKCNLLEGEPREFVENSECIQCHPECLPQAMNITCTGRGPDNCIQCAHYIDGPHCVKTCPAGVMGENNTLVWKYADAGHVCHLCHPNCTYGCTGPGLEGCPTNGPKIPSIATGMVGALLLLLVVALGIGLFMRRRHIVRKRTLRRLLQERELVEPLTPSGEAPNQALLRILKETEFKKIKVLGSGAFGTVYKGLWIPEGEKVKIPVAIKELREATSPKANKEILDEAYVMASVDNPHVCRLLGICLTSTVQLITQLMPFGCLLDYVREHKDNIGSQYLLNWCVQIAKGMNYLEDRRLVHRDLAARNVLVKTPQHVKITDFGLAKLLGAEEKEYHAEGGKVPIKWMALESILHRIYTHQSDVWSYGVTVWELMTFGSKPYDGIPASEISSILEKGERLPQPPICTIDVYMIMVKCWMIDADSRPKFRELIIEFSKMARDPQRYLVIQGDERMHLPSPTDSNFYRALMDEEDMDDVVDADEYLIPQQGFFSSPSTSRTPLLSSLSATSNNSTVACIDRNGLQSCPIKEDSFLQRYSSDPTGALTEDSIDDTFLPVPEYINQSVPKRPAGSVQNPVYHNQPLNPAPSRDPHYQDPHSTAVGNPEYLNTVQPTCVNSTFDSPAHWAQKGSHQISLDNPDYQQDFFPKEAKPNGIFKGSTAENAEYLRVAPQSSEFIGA
Method: Using the following reagents, supplies, and method, the ability of compounds of the invention to modulate the in vitro activity of EGFR can be readily determined in an ELISA.
A431 […] cell lysate is stored at −80° C.
ATP/MnCl2 phosphorylation mix is prepared by adding 300 μL of 1.0 mM ATP and […] of 1M MnCl2 to 9.2 mL of dH2O and mixing. Ten mL of phosphorylation mix is enough for about 6 assay plates. Note that the mixture should be made fresh and kept on ice immediately before use, and that although the preferred ATP is fresh from powder stock, any remaining stock solution of ATP may be frozen at −20° C. in small aliquots to be used at a later time.
Coat Corning 96 well ELISA plates with 0.5 μg per well with SUMO1 in a volume of 100 μL PBS overnight, at 4° C. Remove unbound SUMO1 from wells by inverting plate to remove liquid. Wash 1× with distilled H2O by filling wells. Pat the plate on a paper towel to remove excess liquid.
Add 150 μL of Blocking Buffer to each well. Incubate for 30 minutes at room temperature, with shaking. Wash plate 3× with deionized water, then once with TBST. Pat plate on a paper towel to remove excess liquid and bubbles.
Dilute lysate in PBS (7 μg lysate/[…]) and add 100 μL of diluted lysate to each well. Shake at room temperature for 60 minutes. Wash 1× with distilled H2O by filling wells. Pat the plate on a paper towel to remove excess liquid.
Add 120 μL TBST to ELISA plate containing captured EGFR.
Dilute drugs/extracts 1:10 (unless specified otherwise) in TBST in 96-well polypropylene plates. (i.e., 10 μL compound+90 μL TBST). Add 13.5 μL diluted drugs/extracts to ELISA plate. […] Incubate for 30 minutes while shaking at room temperature.
Approximately 150 μL final volume in well with 3 uM ATP/5 mM MnCl2 final concentration in well. Incubate 5 minutes while shaking. Note that this is a timed event. It is critical that ATP/MnCl2 phosphorylates the receptor for only 5 minutes. It is best to add the ATP/MnCl2 with an automated 96 place pipettor workstation, then 5 minutes later stop the reaction with EDTA using the same workstation. Alternatively, addition can be performed using a 12 channel pipettor 1 row at a time, leaving 20 seconds between each row so that the reaction may be stopped with EDTA exactly 5 minutes later (this depends on the number of plates being phosphorylated in one batch). Shake between each addition.
[…] This is done using either the same work station as above, or the same timing method employed with the 12 channel pipettor. After the EDTA has been added, shake for 1 minute. Wash 4× with deionized water, twice with TBST.
Add 100 μL per well of anti-phosphotyrosine (1:3000 dilution in TBST). Incubate 30-45 minutes at room temperature, with shaking. Wash 1× with distilled H2O by filling wells. Pat the plate on a paper towel to remove excess liquid.
Incubate 30 minutes at room temperature, with shaking. Wash 1× with distilled H2O by filling wells. Pat the plate on a paper towel to remove excess liquid.
Add 100 μL of ABTS/H2O2 solution to each well. Incubate 5 to 10 minutes while shaking. Remove any bubbles. If necessary stop reaction with the addition of 100 μL of 0.2M HCl per well.
as §1

IC50 (PDGFR) [nM] | IC50 (EGFR; read-out: bio EGFR IC50) [nM] | IC50 (EGFR) [nM] | SMILES
 |  | 160 | Cc1cc(C(=O)N2CCOCC2)[nH]c1/C=C1\C(=O)Nc2ncnc(Nc3ccc(F)c(Cl)c3)c21 [Formula 26]
 |  | 450 | Cc1c(C(=O)N2CCN(C)CC2)c[nH]c1/C=C1\C(=O)Nc2ncnc(Nc3ccc(F)c(Cl)c3)c21 [Formula 29]
> 20000 | 770 |  | Cc1[nH]c(/C=C2\C(=O)Nc3ncnc(Nc4ccc(F)c(Cl)c4)c32)c(C)c1CCC(=O)N1CCOCC1 [Formula 30]
> 20000 | 900 |  | O=C1Nc2ncnc(Nc3ccc(F)c(Cl)c3)c2/C1=C/c1ccc(C(=O)N2CCOCC2)[nH]1 [Formula 33]
 |  | 4 | Cc1cc(C(=O)N2CCN(C)CC2)[nH]c1/C=C1\C(=O)Nc2ncnc(Nc3ccc(F)c(Cl)c3)c21 [Formula 39]
> 20000 | 860 |  | Cc1[nH]c(/C=C2\C(=O)Nc3ncnc(Nc4ccc(F)c(Cl)c4)c32)c(C)c1C(=O)N1CCOCC1 [Formula 43]
 | 1.2 |  | Cc1cc(C(=O)N2CCOCC2)[nH]c1/C=C1\C(=O)Nc2ncnc(NC(C)c3ccccc3)c21 (stereo not shown) [Formula 46]
 | 36 |  | Cc1cc(C(=O)O)[nH]c1/C=C1\C(=O)Nc2ncnc(Nc3ccc(F)c(Cl)c3)c21 [Formula 47]
 | < 156 |  | Cc1cc(C(=O)N2CC(C)N(C)C(C)C2)[nH]c1/C=C1\C(=O)Nc2ncnc(Nc3ccc(F)c(Cl)c3)c21 (stereo not shown) [Formula 53]
 | < 156 |  | CCN1CCN(C(=O)c2cc(C)c(/C=C3\C(=O)Nc4ncnc(Nc5ccc(F)c(Cl)c5)c43)[nH]2)CC1 [Formula 54]

More lines, now with the values behind:

SMILES | IC50 (PDGFR) [nM] | IC50 (EGFR; read-out: bio EGFR IC50) [nM] | IC50 (EGFR) [nM]
Cc1[nH]c(C=C2C(=O)Nc3ncnc(Nc4ccc(F)c(Cl)c4)c32)c(C)c1CCC(=O)O [Formula 19, 3-{5-[4-(3-CHLORO-4-FLUORO-PHENYLAMINO)-6-OXO-6,7-DIHYDRO-PYRROLO[2,3-D]PYRIMIDIN-5-YLIDENEMETHYL]-2,4-DIMETHYL-1H-PYRROL-3-YL}-PROPIONIC ACID] | 12800 | 170 | 
Cc1[nH]c(/C=C2\C(=O)Nc3ncnc(Nc4ccc(F)c(Cl)c4)c32)c(C)c1CCC(=O)N1CCCC1 [Formula 24] | > 20000 | 890 | 
Cc1cc(C)c(/C=C2\C(=O)N(C)c3ncnc(Nc4ccc(F)c(Cl)c4)c32)[nH]1 [Formula 38] |  | 5600 | 
Cc1[nH]c(/C=C2\C(=O)N(C)c3ncnc(Nc4ccc(F)c(Cl)c4)c32)c(C)c1CCC(=O)O [Formula 40] |  | 4200 | 
Cc1[nH]c(/C=C2\C(=O)Nc3ncnc(Nc4ccc(F)c(Cl)c4)c32)c(C)c1C(=O)N1CCN(C)CC1 [Formula 41] | > 20000 | 540 | 
Cc1cc(CCC(=O)O)[nH]c1/C=C1\C(=O)N(C)c2ncnc(Nc3ccc(F)c(Cl)c3)c21 [Formula 42] |  | 10400 | 
Cc1[nH]c(/C=C2\C(=O)N(C)c3ncnc(Nc4ccc(F)c(Cl)c4)c32)c(C)c1CCCN1CCOCC1 [Formula 44] |  | > 20000 | 
CN1CCN(C(=O)c2ccc(/C=C3\C(=O)Nc4ncnc(Nc5ccc(F)c(Cl)c5)c43)[nH]2)CC1 [Formula 45] | > 20000 | 50 | 
